Like-named read-outs stand apart in the source and are kept apart here.
Tests used:
[1] = target: panel of 485 distinct kinases; experiment: Kinase selectivity panel (SelectScreen); format: biochemical
[2] = target: kinase named in conditions (Homo sapiens, UniProt P54646); experiment: SelectScreen kinase profiling, SSBK LanthaScreen Binding SP Technology; details: 10 μM
[3] = target: kinase named in conditions (Homo sapiens, UniProt Q86UE8); experiment: as above; details: TLK2, 10 μM
[4] = target: kinase named in conditions (Homo sapiens, UniProt Q96GX5); experiment: as above; details: MASTL, 10 μM
[5] = target: kinase named in conditions (Homo sapiens, UniProt Q9NRM7); experiment: as above; details: LATS2, 10 μM
[6] = test system: 47 human off-target liabilities; experiment: DiscoverX Safety47 panel (78 functional assays); details: @ 30 μM
Procedure: (§1) Screening for off-target pharmacology across multiple drug target classes was performed in the DiscoverX Safety47 panel as the SAFETYscan E/IC50 ELECT service by Eurofins (San Diego CA, U.S.A.). Assay information and data are presented in the Supporting Information.
Safety pharmacology studies
Screening for off-target pharmacology across multiple drug target classes was performed in the DiscoverX Safety47™ panel as the SAFETYscan E/IC50 ELECT service by eurofins (San Diego CA, U.S.A.). The assays were performed utilizing the PathHunter enzyme fragment complementation (EFC) technology, FLIPR®-based cellular screening assays, KINOMEscan kinase binding assays, and a variety of enzymatic assays (78 assays).

NaV1.5 = target: T1, NaV1.5 (Homo sapiens, UniProt Q14524); experiment: Safety47 cardiac sodium channel assay; format: cell-based
T1 construct: Eurofins (DiscoverX Safety47)
Procedure: as §1

[7] = Stability in human liver microsomes; format: in vitro ADME; details: for half-life: human, liver microsomes, read-out: HLM Stability t1/2
[8] = Plasma protein binding, rapid equilibrium dialysis; details: for fraction unbound at 4 h, 2 µM: plasma
Procedure: G. Plasma protein binding (PPB):
Method: rapid equilibrium dialysis.
Test System Mouse Plasma (K2EDTA)
Test compound concentration 10 µM (mouse) or 2 µM (rat)

[9] = Brain tissue binding, rapid equilibrium dialysis; format: in vitro ADME, mouse; details: for fraction unbound at 5 h, 10 µM: brain homogenate
in vitro = details: dog
MDR1 (P-gp) = experiment: in vitro; details: dog
P-gp (MDR1) = experiment: in vitro; details: dog
CYP2D6 = CYP2D6 (Homo sapiens, UniProt P10635); experiment: CYP450 inhibition in HLM
CYP3A4 = CYP3A4 (Homo sapiens, UniProt P08684); experiment: CYP450 inhibition in HLM
[10] = Stability in rat liver microsomes
[11] = MDCK-MDR1, MDCK-MDR1 AB Papp, apical to basal
[12] = MDCK-MDR1, MDCK-MDR1 BA Papp, basal to apical

Chain of CYP3A4 (P08684 whole entry): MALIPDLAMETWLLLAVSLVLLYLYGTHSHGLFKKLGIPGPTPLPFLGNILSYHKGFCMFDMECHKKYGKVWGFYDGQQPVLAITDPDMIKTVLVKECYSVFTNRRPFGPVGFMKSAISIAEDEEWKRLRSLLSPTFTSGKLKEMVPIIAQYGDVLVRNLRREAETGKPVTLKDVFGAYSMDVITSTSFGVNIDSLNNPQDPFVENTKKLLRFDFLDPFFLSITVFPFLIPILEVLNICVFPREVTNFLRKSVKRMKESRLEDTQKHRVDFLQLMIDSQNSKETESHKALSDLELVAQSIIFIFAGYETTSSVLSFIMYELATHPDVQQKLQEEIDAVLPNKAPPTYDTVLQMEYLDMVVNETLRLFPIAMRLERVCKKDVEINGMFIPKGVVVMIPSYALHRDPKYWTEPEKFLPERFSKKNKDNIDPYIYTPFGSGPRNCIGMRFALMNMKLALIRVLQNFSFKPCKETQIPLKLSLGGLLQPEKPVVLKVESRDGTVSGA
Chain of CYP2D6 (P10635 whole entry): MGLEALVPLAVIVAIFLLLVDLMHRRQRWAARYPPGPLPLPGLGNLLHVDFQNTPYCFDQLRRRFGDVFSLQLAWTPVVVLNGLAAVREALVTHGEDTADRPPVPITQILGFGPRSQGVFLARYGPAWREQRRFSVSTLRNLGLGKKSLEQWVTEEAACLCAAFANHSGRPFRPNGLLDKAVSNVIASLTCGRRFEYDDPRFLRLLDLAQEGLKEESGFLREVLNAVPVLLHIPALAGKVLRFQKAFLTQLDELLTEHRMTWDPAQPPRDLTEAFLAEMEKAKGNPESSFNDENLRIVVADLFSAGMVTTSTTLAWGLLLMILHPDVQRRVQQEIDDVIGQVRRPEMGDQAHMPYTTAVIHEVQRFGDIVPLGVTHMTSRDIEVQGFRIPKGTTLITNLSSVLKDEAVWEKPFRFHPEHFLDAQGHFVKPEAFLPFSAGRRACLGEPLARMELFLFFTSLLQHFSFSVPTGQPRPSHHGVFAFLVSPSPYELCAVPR
Chain of kinase named in conditions (Homo sapiens, UniProt P54646) (P54646 whole entry): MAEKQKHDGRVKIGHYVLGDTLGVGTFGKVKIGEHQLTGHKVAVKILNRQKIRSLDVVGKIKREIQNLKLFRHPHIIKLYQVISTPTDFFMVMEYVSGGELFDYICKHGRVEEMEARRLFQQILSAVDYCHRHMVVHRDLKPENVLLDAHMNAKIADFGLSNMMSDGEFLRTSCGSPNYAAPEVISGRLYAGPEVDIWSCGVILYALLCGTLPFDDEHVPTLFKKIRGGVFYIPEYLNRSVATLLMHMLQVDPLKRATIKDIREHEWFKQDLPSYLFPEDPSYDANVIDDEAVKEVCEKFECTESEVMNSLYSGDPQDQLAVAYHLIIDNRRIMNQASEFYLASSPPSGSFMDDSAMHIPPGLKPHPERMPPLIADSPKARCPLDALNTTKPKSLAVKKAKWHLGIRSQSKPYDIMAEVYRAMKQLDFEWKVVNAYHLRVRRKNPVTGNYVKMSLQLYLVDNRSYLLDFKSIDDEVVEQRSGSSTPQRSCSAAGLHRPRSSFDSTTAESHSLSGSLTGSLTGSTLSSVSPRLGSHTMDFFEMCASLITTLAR
Chain of kinase named in conditions (Homo sapiens, UniProt Q9NRM7) (Q9NRM7 whole entry): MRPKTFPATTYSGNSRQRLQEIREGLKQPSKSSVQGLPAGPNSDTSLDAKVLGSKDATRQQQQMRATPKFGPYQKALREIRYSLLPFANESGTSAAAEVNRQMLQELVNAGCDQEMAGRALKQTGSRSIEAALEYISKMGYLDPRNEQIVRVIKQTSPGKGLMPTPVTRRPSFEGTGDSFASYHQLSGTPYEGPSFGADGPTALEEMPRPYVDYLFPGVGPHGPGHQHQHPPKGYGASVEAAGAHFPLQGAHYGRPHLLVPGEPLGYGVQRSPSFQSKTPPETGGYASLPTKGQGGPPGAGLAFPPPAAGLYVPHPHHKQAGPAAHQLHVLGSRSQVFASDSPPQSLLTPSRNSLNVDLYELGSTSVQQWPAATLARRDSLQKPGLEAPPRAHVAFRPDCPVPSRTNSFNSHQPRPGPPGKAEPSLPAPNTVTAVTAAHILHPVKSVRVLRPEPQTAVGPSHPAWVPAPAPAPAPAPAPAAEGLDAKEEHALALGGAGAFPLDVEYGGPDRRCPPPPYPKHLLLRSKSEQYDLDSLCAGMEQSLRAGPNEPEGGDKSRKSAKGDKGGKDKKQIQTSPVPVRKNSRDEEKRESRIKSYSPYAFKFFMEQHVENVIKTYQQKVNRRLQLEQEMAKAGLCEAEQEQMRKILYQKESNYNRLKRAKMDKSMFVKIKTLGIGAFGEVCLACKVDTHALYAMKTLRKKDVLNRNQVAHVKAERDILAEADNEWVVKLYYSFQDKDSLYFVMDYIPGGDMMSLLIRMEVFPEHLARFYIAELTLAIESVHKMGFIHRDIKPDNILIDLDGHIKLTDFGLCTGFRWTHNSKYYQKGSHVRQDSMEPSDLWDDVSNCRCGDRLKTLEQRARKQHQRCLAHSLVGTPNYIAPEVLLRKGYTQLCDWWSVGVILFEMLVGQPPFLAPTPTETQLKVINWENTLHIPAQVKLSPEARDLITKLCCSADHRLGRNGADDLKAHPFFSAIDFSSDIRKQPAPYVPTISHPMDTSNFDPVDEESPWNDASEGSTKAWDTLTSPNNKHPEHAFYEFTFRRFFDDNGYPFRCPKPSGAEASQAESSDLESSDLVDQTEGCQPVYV
Chain of kinase named in conditions (Homo sapiens, UniProt Q86UE8) (Q86UE8 whole entry): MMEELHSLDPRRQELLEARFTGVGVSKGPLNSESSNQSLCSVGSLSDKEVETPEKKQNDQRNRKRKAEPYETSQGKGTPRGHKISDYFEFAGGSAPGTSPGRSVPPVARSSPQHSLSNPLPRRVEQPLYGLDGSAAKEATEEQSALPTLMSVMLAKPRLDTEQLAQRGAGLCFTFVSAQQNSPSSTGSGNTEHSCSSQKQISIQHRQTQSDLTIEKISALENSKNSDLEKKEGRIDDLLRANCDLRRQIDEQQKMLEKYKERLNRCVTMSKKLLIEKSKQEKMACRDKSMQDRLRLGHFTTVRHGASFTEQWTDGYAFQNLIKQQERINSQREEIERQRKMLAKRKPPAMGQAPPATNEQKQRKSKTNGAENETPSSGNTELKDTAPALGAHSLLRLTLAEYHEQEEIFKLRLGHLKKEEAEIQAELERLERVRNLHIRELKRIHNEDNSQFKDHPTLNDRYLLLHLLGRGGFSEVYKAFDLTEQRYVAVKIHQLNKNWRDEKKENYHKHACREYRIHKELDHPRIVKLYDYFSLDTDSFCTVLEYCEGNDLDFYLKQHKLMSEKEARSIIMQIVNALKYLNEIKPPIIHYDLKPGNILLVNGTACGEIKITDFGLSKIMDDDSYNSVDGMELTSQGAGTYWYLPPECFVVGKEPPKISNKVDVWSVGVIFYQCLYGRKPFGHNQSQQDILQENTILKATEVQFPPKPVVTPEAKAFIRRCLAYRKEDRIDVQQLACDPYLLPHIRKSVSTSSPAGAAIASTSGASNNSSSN
Chain of kinase named in conditions (Homo sapiens, UniProt Q96GX5) (Q96GX5 whole entry): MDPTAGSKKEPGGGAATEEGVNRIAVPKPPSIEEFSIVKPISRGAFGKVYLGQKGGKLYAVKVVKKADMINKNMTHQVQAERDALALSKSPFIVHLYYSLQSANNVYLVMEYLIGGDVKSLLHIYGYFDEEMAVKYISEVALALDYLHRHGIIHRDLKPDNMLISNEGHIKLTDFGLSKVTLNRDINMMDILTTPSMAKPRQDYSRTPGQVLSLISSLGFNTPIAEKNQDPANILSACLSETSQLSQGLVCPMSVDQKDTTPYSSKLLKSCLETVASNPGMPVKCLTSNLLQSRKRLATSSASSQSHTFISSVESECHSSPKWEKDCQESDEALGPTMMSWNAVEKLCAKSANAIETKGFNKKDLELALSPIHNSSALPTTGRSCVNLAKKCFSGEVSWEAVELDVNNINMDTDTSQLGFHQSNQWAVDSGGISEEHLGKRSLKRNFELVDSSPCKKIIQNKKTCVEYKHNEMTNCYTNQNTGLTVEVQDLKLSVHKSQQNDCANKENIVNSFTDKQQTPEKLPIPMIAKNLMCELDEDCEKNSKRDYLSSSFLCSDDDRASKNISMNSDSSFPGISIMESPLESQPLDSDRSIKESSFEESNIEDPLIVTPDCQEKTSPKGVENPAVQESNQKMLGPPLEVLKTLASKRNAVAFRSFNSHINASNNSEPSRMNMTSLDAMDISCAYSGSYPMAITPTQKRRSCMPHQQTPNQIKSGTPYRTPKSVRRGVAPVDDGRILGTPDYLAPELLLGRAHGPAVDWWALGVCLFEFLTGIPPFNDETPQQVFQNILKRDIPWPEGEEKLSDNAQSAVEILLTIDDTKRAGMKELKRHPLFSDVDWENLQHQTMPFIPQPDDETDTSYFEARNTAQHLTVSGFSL

With FC(F)(F)c1c(Cl)ccc(-n2ccnn2)c1Cl [8l, 1-(2,4-Dichloro-3-(trifluoromethyl)phenyl)-1H-1,2,3-triazole] the “kinases with >50% inhibition” value ([1]; @10 μM) was 0/485, the “inhibition for all kinases of the panel” value ([1]; at 10 μM) was < 50% and the inhibition at 10 µM ([2]; AMPK (A2/B2/G1)) was 12%. The inhibition at 10 µM ([2]; AMPK (A2/B2/G2)) was 24%, the inhibition at 10 µM [3] was 11% and the inhibition at 10 µM [4] was -8%. The inhibition at 10 µM [5] was 7%, the “assays with >50% activity” value [6] was 3/78 and the IC50 (NaV1.5) was > 30 µM. The “HLM Cli” value [7] was 1.5 μL/min/mg protein, the “Liver microsome stability Cli, HLM” value ([7]; additional study (Table 5)) was < 9.6 μL/min/mg protein and the half-life ([7]; Table S4) was 2 h. For the same compound, the half-life ([7]; Table S8) was > 2.42 h, the fraction unbound at 4 h, 2 µM ([8]; SD, rat, pH 7.4) was 0.0552 and the fraction unbound at 4 h, 2 µM ([8]; SD, rat, pH 7.4, Plasma protein binding (PPB), % bound, rat plasma) was 0.0552. For the same compound, the recovery at 4 h, 2 µM ([8]; SD, rat, rat plasma, pH 7.4) was 99.3%, the “Plasma protein binding (PPB), % bound” value ([8]; mouse plasma) was 95.8% and the recovery at 5 h, 10 µM ([8]; mouse, mouse plasma (K2EDTA), pH 7.4) was 89.9%. The “Plasma protein binding (PPB), % bound” value ([8]; rat plasma) was 94.5%, the fraction unbound at 5 h, 10 µM ([9]; 10% w/v in PBS, pH 7.4, mouse, 10 µM, 5 h, read-out: % Unbound in brain homogenate, mean) was 0.0298 and the “Brain binding, % bound” value ([9]; mouse brain homogenate) was 97.0%. The fraction unbound at 5 h, 10 µM ([9]; mouse, 10% w/v in PBS, pH 7.4, mouse brain homogenate, read-out: Brain binding, % bound (converted)) was 0.0298, the recovery at 5 h, 10 µM ([9]; mouse, mouse brain homogenate, 10% w/v in PBS, pH 7.4) was 107% and the Papp (in vitro; [11]) was 31 ×10⁻⁶ cm/s. For the same compound, the Papp (in vitro; [12]) was 39 ×10⁻⁶ cm/s, the recovery (MDR1 (P-gp); MDCK-MDR1, MDR1-MDCKII A to B % Recovery) was 85.1% and the recovery (MDR1 (P-gp); MDCK-MDR1, MDR1-MDCKII B to A % Recovery) was 90.5%. The Papp (P-gp (MDR1); [11]) was 31.4 ×10⁻⁶ cm/s, the Papp (P-gp (MDR1); [12]) was 39.2 ×10⁻⁶ cm/s and the IC50 (CYP2D6; read-out: CYP inhibition IC50, 2D6, HLM) was > 50 µM. The IC50 (CYP2D6; read-out: IC50 CYP2D6/Dextromethorphan, (+)NADPH pre-incubation) was > 50 µM, the IC50 (CYP2D6; read-out: IC50 CYP2D6/Dextromethorphan, (-)NADPH pre-incubation) was > 50 µM and the IC50 (CYP3A4; read-out: CYP inhibition IC50, 3A4(mid.), HLM, midazolam) was > 50 µM. The IC50 (CYP3A4; read-out: CYP inhibition IC50, 3A4(test.), HLM, testosterone) was > 50 µM, the IC50 (CYP3A4; read-out: IC50 CYP3A4/Midazolam, (+)NADPH pre-incubation) was > 50 µM and the IC50 (CYP3A4; read-out: IC50 CYP3A4/Midazolam, (-)NADPH pre-incubation) was > 50 µM. The IC50 (CYP3A4; read-out: IC50 CYP3A4/Testosterone, (+)NADPH pre-incubation) was > 50 µM, the IC50 (CYP3A4; read-out: IC50 CYP3A4/Testosterone, (-)NADPH pre-incubation) was > 50 µM and the “Liver microsome stability Cli, RLM” value [10] was < 9.6 μL/min/mg protein. For the same compound, the half-life ([10]; rat, liver microsomes) was > 2.42 h.

Source: publication PMC9150124, “Design of a Potent, Selective, and Brain-Penetrant Inhibitor of Wnt-Deactivating Enzyme Notum by Optimization of a Crystallographic Fragment Hit” (Journal of Medicinal Chemistry, 2022)
